Assay results: patent publication US20220000871A1, “METHODS AND COMPOSITIONS FOR TREATING NEURODEGENERATIVE DISEASES USING MODULATORS OF PHOSPHOGLYCERATE KINASE 1 (PGK1) ACTIVITY” (UNIVERSITY OF IOWA RESEARCH FOUNDATION, priority 2019, published 2022)

Key:
[1] = test system: patients with PD; experiment: Analysis of the PPMI database (MDS-UPDRS Part 3 motor progression); format: in vivo, human; settings: for rate of motor function decline / progression of motor disability: PPMI database, vs controls; for MDS-UPDRS Part 3 Slope of change/month, mean ± S.E.: PPMI, male PD patients, baseline to ~1 year
From the text: FIG. 7. TZ and related drugs slow progression of motor defects for patients with PD enrolled in the PPMI database. MDS-UPDRS Part 3 (motor) scores of PD patients in the PPMI database. Patients were taking TZ/DZ/AZ (blue, N=13), tamsulosin (green, N=24), or neither (red, N=269). Data are scores at entry into PPMI through ˜1 year and include all measures between those times. All patients taking these drugs were males prescribed TZ/DZ/AZ or tamsulosin without breaks for benign prostatic hyperplasia or undefined urological problems. Lines are plotted from linear mixed effect regression analyses. By maximum likelihood estimation, TZ/DZ/AZ differed from controls (P=0.012).
FIG. 18. UPDRS scores for 13 patients with PD taking TZ/DZ/AZ. Each set of data points and lines indicates an individual patient. Bold line and shading indicate the linear regression line and 95% confidence intervals for the 13 patients. See legend of FIG. 7 for more information.
We analyzed data from the PPMI database (21) for patients taking TZ alone, TZ/DZ/AZ, or tamsulosin. We tested if these drugs influenced the rate of motor progression as measured by part III of the Movement Disorder Society's Unified Parkinson's Disease Rating Scale ([…]), which is a metric of motor disability in Parkinson's disease (22). For this analysis, only participants who were using TZ/DZ/AZ or tamsulosin at their baseline PPMI visit were included in the drug groups. PPMI protocol dictates that the fourth visit should occur approximately one year after the baseline visit; accordingly, any visit that occurred between the baseline visit and the fourth PPMI visit were included. Participants also had to have more than one visit to be included. Of the 13 participants in the TZ/DZ/AZ group, 11 were taking the medication-of-interest without breaks until their fourth visit. One participant was taking DZ at the time of their baseline visit, but discontinued within 30 days of their baseline visit. That participant was only considered to be using DZ during their first and second visits. Another participant was using AZ at their baseline visit and for approximately 5 months after that. This participant was considered to be taking AZ during their first and second visits. If these two participants were excluded from the analysis and only participants who were taking the medication-of-interest without breaks in therapy were included, the results change only marginally. The TZ/DZ/AZ group (n=11) has a slope of change of 0.02±0.21 compared to 0.53±0.05 in the control group (n=269, p=0.015). […]
Only MDS-UPDRS readings that were obtained when the participants were not yet taking a PD medication or were in the practically defined OFF state (at least 6 hours after the last dose of levodopa or any other anti-PD medication) were utilized for this analysis. […]

[2] = test system: M17 human neuroblastoma cells; experiment: Glycolysis and mitochondrial function in M17 cells
Experimental: Cells were incubated with mild hypoxia for 12 hr before study. Cells were cultured in a sealed chamber (Stemcell Technologies Vancouver, Canada) that was flushed with a humidified gas mixture composed of 5% 02, 5% carbon dioxide (CO2), and 90% nitrogen (N2) for 12 hr. […] Assays of ATP, pyruvate, and citrate synthase activities (CS) were performed according to the manufacturer's instructions.
A Seahorse XV analyzer (XF^e-24, Seahorse Bioscience, Billerica, Mass., USA) was used to measure the oxygen consumption rate (OCR) and the extracellular acidification rate (ECAR) as previously described (18). The M17 cells and iPS cells were seeded in XF^e 24-well plates (Seahorse Bioscience), while the plates used for iPS cells were poly-D-lysine pre-coated. Assay medium was prepared by supplementing Seahorse XF^eBaseMedium minimal DMEM (Seahorse Bioscience) with 2 mM L-glutamine for a Glycolysis Stress Test assay or 2 mM L-glutamine, 1 mM pyruvate and 10 mM glucose for a Mito Stress Test assay (Sigma). pH was adjusted to 7.4 at 37° C. Probes (Seahorse Bioscience) were hydrated in the calibrant (Seahorse Bioscience) in a non-CO2 incubator at 37° C. overnight. Cells were washed twice with assay medium and kept in a non-CO2 incubator at 37° C. for 1 hr before analysis. Glucose, oligomycin and 2-deoxy-glucose (2-DG) were pre-loaded in the probe plate for Glycolysis Stress Test, while oligomycin, FCCP and a mixture of rotenone and antimycin A were used for Mito Stress Test.
Citrate synthase (CS) activity, LDH assay and pyruvate level were detected using commercial kits according to the manufacturer's directions. ATP content in animal tissues and M17 cells were detected with the ATP assay kit following the manufacturer's directions.

Row | SMILES | rate of motor function decline / progression of motor disability [1] | MDS-UPDRS Part 3 Slope of change/month, mean ± S.E. [1] | glycolysis and mitochondrial function ([2]; TZ 10 μM, 24 hr) | glycolysis ([2]; in vitro, 10 μM, 24 hr (ECAR))
1 | COc1cc2nc(N3CCN(C(=O)C4CCCO4)CC3)nc(N)c2cc1OC (stereo not drawn) [TZ, terazosin] | slower | 0.01 ± 0.25 | enhances | 
2 | CCOc1ccccc1OCCN[C@H](C)Cc1ccc(OC)c(S(N)(=O)=O)c1 [tamsulosin] | failed to slow | 0.39 ± 0.14 |  | does not enhance
